Like-named read-outs stand apart in the source and are kept apart here.
Columns and labels:
[1] = test system: STAT1 S727 phosphorylation; design: method as in patent application US 2017/0115308A1; conditions: ref patent application US 2017/0115308A1; cited from earlier work
[2] = target: PIKFYVE (Homo sapiens, UniProt Q9Y2I7); experiment: KdELECT Kd determination, PIKFYVE; design: purchased DiscoverX; conditions: 11-point 3-fold serial dilution, duplicate; read-out: Kd for the inhibition of nucleotide binding, PIKFYVE
Chain of PIKFYVE (Q9Y2I7 whole entry): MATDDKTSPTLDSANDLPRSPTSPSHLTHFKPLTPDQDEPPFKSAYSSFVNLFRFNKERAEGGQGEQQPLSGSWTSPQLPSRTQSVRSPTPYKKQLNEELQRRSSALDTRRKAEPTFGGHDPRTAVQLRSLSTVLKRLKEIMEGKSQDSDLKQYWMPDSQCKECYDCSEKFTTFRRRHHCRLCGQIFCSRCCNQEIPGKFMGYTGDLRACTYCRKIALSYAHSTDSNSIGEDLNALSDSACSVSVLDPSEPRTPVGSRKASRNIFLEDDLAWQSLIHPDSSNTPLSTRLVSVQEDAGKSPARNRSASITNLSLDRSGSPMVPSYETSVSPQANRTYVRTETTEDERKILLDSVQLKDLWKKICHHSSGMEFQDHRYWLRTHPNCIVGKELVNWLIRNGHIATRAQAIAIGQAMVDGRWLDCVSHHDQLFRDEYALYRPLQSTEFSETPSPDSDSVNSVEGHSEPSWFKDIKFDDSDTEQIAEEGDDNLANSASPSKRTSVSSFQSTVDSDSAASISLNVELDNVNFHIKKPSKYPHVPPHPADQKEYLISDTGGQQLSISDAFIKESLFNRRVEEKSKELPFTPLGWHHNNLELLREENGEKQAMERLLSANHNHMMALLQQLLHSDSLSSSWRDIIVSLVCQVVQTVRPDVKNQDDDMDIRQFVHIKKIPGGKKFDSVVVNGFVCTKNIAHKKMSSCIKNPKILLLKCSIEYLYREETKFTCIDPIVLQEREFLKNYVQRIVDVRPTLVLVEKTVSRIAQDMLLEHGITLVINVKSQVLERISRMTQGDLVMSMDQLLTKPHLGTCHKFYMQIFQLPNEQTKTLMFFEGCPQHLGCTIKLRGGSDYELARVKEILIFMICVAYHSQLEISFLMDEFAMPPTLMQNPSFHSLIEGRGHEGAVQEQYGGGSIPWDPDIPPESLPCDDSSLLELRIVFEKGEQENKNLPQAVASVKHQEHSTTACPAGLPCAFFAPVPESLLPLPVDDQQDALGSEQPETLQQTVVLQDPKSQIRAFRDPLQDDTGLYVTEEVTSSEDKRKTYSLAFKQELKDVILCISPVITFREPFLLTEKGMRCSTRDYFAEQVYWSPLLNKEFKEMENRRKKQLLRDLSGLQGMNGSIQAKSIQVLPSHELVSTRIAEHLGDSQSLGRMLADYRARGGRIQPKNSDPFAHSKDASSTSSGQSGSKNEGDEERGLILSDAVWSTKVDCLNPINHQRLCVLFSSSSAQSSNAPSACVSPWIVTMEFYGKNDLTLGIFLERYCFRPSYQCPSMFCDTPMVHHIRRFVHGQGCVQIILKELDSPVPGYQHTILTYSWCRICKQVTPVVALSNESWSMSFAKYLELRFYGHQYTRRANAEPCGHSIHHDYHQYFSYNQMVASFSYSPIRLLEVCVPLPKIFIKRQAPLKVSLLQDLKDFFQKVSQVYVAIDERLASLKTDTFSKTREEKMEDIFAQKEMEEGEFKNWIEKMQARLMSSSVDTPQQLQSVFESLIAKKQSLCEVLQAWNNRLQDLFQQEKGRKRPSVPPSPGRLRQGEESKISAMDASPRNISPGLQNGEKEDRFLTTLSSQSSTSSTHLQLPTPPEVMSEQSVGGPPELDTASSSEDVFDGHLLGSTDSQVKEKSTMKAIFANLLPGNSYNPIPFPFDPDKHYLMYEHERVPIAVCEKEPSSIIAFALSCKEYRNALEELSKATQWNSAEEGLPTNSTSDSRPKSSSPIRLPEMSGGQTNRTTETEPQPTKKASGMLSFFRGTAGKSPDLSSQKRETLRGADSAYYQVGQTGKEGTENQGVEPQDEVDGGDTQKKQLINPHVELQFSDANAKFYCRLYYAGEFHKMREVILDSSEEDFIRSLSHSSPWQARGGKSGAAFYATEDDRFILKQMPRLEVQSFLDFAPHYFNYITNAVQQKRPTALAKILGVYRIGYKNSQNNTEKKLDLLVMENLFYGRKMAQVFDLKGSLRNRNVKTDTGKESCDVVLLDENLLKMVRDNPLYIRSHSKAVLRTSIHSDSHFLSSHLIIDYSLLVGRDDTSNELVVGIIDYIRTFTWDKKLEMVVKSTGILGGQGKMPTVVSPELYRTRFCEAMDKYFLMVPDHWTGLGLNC
Experimental: (§1) The screening platform employs an active site-directed competition binding assay to quantitatively measure interactions between test compounds and targeting kinases. […] To determine dissociation constants (Kds) of compounds on different targets, an 11-point 3-fold serial dilution of each test compound was tested in independent duplicate assays.
(§2) This assay has been previously used with many CDK8/19 inhibitors, including cortistatin A and its equipotent analog dCA [20, 21]; 15w.

[3] = target: T1, MAP4K2 (Homo sapiens, UniProt Q12851); experiment: KdELECT Kd determination, MAP4K2; conditions: 11-point 3-fold serial dilution, duplicate; read-out: Kd for the inhibition of nucleotide binding, MAP4K2
T1 construct: purchased DiscoverX
T1 sequence (Q12851 1-820): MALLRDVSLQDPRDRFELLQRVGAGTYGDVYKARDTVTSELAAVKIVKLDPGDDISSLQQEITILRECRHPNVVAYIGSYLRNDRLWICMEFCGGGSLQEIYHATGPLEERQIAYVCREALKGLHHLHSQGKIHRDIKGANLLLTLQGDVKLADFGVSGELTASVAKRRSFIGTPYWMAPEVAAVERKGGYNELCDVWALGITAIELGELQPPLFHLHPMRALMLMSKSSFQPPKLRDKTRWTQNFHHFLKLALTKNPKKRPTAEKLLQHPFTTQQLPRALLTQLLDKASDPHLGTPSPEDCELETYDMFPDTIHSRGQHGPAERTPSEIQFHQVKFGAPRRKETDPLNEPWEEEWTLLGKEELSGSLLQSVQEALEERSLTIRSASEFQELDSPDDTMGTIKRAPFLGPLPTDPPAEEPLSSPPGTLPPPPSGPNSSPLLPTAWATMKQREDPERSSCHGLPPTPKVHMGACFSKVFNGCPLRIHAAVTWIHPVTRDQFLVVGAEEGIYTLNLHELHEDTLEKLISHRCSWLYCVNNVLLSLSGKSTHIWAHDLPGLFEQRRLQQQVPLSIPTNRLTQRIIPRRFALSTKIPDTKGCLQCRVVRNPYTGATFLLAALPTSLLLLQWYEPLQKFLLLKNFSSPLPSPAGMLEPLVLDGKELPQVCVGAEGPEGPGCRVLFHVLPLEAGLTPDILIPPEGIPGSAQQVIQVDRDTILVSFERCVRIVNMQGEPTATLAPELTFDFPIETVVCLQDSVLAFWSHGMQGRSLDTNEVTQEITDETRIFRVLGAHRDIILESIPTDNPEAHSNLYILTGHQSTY
Experimental: as §1, §2

[4] = target: T2, CDK8 (Homo sapiens, UniProt P49336); experiment: Cell-based QPCR assay of CDK8/19-dependent gene expression, HEK293 CDK19 single-knockout (19KO) cells; design: CDK19 single-knockout (19KO); endogenous in cells; host or cells: HEK293 CDK19 knockout (19KO); conditions: HEK293 19KO, 1 h pre-treatment, then 10 ng/mL TNFα 2 h
Target sequence in this assay (P49336 whole entry): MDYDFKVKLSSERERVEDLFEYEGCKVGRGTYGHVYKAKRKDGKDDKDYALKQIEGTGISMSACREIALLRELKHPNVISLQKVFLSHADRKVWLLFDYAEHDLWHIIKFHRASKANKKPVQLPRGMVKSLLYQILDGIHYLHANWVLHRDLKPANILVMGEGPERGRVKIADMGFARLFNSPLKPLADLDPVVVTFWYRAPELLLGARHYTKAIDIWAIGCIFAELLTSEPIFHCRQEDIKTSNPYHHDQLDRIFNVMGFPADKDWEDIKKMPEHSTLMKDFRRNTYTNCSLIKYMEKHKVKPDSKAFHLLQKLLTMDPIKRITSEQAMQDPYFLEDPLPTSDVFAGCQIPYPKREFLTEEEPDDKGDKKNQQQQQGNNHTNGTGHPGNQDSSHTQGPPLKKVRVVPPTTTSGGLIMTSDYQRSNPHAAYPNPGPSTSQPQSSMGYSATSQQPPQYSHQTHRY
Target sequence in this assay (P24863 whole entry partner): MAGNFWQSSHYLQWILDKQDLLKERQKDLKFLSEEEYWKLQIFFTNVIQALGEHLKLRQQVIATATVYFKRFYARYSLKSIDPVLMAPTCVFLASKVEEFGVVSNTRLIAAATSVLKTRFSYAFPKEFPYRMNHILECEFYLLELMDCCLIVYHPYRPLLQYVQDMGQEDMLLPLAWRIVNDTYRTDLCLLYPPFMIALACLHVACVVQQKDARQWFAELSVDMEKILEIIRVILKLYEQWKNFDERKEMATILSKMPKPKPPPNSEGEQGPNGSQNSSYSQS
Experimental: CDK8/CDK19 single knockout and double knockout derivatives of human embryonic kidney (HEK) 293 cells (ATCC CRL-1573) were generated as previously described [18]. All cells were cultured in DMEM (high-glucose) media supplemented with 10% fetal bovine serum (FBS) and Penicillin-Streptomycin-Glutamine (1×) at 37 °C with 5% CO2 and routinely confirmed to be free of mycoplasma.
(§4) Total RNA was extracted using RNAeasy Mini Kit (Qiagen, Germantown, MD, USA) and 1 µg of total RNA was used to generate cDNA using iScript cDNA synthesis kit (Bio-Rad Laboratories, Hercules, CA, USA). Gene expression was quantified using iTaq Universal SYBR green super mix using CFX384 Real-Time System (Bio-Rad).
The IC50 values for different inhibitors in inhibiting CDK8/19-dependent gene expression were calculated using a three-parameter least square (ordinary) fitting method with GraphPad Prism 7.0 (GraphPad Software, San Diego, CA, USA). The Kruskal–Wallis non-parametric ANOVA was used to compare gene expression levels under no-inhibitor conditions between wild-type cells and knockout derivatives (8KO, 19KO and dKO) with GraphPad Prism 7.0.
(§5) Cells were pre-treated with different concentrations of CDK8/19 inhibitors for 1 h and then 10 ng/mL TNFα, an inducer of transcription factor NFκB, which is potentiated by CDK8/19 [5], was added for 2 h before RNA extraction. QPCR was carried out to quantify CDK8/19-regulated expression of NFκB-inducible genes CXCL1 and CXCL8 and the basal expression of MYC.

[5] = test system: STAT1 S727 phosphorylation; experiment: Western blot of STAT1 S727 phosphorylation in NIH 3T3 cells; type: cell-based, murine; conditions: 1 μM
Experimental: (§3) Cells were cultured in 60-mm dishes and treated under different conditions before being lysed in RIPA lysis buffer with protease/phosphatase inhibitor cocktail. The protein concentration of extracts was determined using the DC protein assay (Bio-Rad Laboratories). Protein samples (50 μg) were resolved on 4–12% Express-Plus PAGE gels in Tris-MOPS (SDS) running buffer (GenScript, Piscataway, NJ, USA), transferred to PVDF membranes and incubated at 4 °C overnight with primary antibodies STAT1 (sc-592, Santa Cruz Biotechnology, Dallas, TX, USA) and pSTAT1-Ser727 (#8826, Cell Signaling Technology, Danvers, MA, USA) followed by anti-rabbit (NA934, GE Healthcare, Chicago, IL, USA) secondary antibodies. Bands were visualized with Western Lighting Plus ECL detection reagent (Perkin Elmer, Waltham, MA, USA) using ChemiDoc Touch™ (Bio-Rad). Images were analyzed using ImageLab (Bio-Rad) and ImageJ (version 1.52p) software for protein signal quantification.

[6] = target: T3, STK16 (Homo sapiens, UniProt O75716); experiment: KdELECT Kd determination, STK16; conditions: 11-point 3-fold serial dilution, duplicate; read-out: Kd for the inhibition of nucleotide binding, STK16
T3 construct: purchased DiscoverX
T3 sequence (O75716 whole entry): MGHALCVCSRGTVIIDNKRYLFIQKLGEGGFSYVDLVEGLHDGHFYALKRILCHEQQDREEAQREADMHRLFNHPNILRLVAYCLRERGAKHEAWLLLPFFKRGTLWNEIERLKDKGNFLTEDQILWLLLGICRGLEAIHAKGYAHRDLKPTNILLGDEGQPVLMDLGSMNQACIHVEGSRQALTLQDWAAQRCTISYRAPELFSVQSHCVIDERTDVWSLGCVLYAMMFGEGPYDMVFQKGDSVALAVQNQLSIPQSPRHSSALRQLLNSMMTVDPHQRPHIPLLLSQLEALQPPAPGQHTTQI
Experimental: as §1, §2

[7] = target: T2, CDK8; experiment: KdELECT Kd determination, CDK8; type: binding; design: purchased DiscoverX; conditions: 11-point 3-fold serial dilution, duplicate; read-out: Kd for the inhibition of nucleotide binding, CDK8
Experimental: To determine dissociation constants (Kds) of compounds on different targets, an 11-point 3-fold serial dilution of each test compound was tested in independent duplicate assays.
Target sequence in this assay (P49336 whole entry): as the sequence (P49336 whole entry) above

[8] = target: T4, GSK3A (Homo sapiens, UniProt P49840); experiment: KdELECT Kd determination, GSK3A; conditions: 11-point 3-fold serial dilution, duplicate; read-out: Kd for the inhibition of nucleotide binding, GSK3A
T4 construct: purchased DiscoverX
T4 sequence (P49840 whole entry): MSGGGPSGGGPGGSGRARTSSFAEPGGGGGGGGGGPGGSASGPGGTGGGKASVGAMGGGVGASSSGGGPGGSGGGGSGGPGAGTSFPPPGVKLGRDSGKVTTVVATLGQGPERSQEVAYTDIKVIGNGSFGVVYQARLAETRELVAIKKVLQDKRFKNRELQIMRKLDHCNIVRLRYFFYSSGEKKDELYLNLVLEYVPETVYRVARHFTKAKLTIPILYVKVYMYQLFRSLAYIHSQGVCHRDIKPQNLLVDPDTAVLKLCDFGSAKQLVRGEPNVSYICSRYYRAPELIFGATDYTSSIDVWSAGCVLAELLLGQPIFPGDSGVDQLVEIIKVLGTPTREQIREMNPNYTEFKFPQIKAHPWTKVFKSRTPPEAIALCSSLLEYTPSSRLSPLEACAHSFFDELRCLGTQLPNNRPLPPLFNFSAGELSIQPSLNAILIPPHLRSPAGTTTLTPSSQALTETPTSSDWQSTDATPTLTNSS
Experimental: as §1, §2

[9] = test system: CDK8/19; experiment: Cell-based QPCR assay of CDK8/19-dependent gene expression, HEK293 parental (WT) cells; design: species or system human; conditions: for IC50: HEK293 WT, 1 h pre-treatment, then 10 ng/mL TNFα 2 h, QPCR
Experimental: All cells were cultured in DMEM (high-glucose) media supplemented with 10% fetal bovine serum (FBS) and Penicillin-Streptomycin-Glutamine (1×) at 37 °C with 5% CO2 and routinely confirmed to be free of mycoplasma.
as §4
The IC50 values for different inhibitors in inhibiting CDK8/19-dependent gene expression were calculated using a three-parameter least square (ordinary) fitting method with GraphPad Prism 7.0 (GraphPad Software, San Diego, CA, USA).
as §5

[10] = target: T5, JNK1 (MAPK8) (Homo sapiens, UniProt P45983); experiment: KdELECT Kd determination, JNK1; conditions: 11-point 3-fold serial dilution, duplicate; read-out: Kd for the inhibition of nucleotide binding, JNK1 (MAPK8)
T5 construct: purchased DiscoverX
T5 sequence (P45983 whole entry): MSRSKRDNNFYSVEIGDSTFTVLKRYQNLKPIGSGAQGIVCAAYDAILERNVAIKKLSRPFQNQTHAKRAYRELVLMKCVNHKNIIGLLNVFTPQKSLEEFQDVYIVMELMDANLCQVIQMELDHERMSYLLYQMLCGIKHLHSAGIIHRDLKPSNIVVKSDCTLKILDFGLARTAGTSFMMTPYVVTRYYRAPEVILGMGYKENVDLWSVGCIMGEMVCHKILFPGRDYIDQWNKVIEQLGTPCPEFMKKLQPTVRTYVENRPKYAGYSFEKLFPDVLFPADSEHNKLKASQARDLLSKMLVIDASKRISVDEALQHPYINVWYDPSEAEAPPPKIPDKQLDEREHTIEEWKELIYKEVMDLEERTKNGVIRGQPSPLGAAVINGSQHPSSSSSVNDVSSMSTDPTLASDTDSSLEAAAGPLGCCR
Experimental: as §1, §2

[11] = test system: STAT1 S727 phosphorylation; experiment: Basal STAT1 S727 phosphorylation in rat neurons in culture; type: cell-based; conditions: not shown
[12] = test system: STAT1 S727 phosphorylation; experiment: Western blot of STAT1 S727 phosphorylation in 293-WT cells; type: cell-based, human; conditions: 1 μM
Experimental: as §3

Kd [2]: 14 µM | Kd [3]: 0.57 µM | IC50 ([4]; read-out: IC50, CXCL1 mRNA expression, 19KO): 0.07 µM | IC50 ([4]; read-out: IC50, CXCL8 mRNA expression, 19KO): 0.071 µM | IC50 ([4]; read-out: IC50, MYC mRNA expression, 19KO): 0.051 µM | Kd [6]: 2.2 µM | Kd [7]: 0.059 µM | Kd [8]: > 30 µM | Kd [10]: 7.2 µM
Compound: CN1CCN(C(=O)c2ccc3cc(CCNc4ncnc5ccc(C#N)cc45)ccc3c2)CC1 [Senexin B]
Effect on basal STAT1 S727 phosphorylation in all the tested tumor cell lines [1]: inhibited | Effect on STAT1 S727 phosphorylation, serum-starved NIH 3T3 cells ([5]; serum starvation 24 h): inhibits STAT1 S727 phosphorylation | Effect on STAT1 S727 phosphorylation, NIH 3T3 cells after addition of serum ([5]; serum stimulation 1 h): only a minor effect | Activity in the cell-based assay (WT, 8KO and 19KO cells) [9]: an order of magnitude less active | IC50 ([9]; read-out: IC50, CXCL1 mRNA expression, WT): 0.068 µM | IC50 ([9]; read-out: IC50, CXCL8 mRNA expression, WT): 0.081 µM | IC50 ([9]; read-out: IC50, MYC mRNA expression, WT): 0.045 µM | Effect on basal STAT1 S727 phosphorylation in rat neurons in culture [11]: did not detect any effect | Effect on STAT1 S727 phosphorylation, WT 293 cells under standard conditions and serum-starved [12]: inhibits STAT1 S727 phosphorylation | Effect on serum-stimulated increase of STAT1 S727 phosphorylation, WT 293 cells ([12]; serum stimulation 1 h): only weakly affected

Source: PMC6912361, “Systemic Toxicity Reported for CDK8/19 Inhibitors CCT251921 and MSC2530818 Is Not Due to Target Inhibition” (Cells, 2019)
